From PMC6072243 (ACS Omega, 2018) come the findings set out here.

Broadly, the IC50 is the concentration at which inhibition is half-maximal. A low value points to inhibition by little substance.

One data set addresses JNK3 (Homo sapiens, UniProt P53779). As to the kind of experiment: JNK3 enzyme-linked immunosorbent assay. In kind it is biochemical.
A further data set concerns the target p38α MAPK (Homo sapiens, UniProt Q16539). The data set is described as follows: p38α MAPK enzyme-linked immunosorbent assay. As to conditions: for inhibition at 10 µM: read-out: Percent inhibition of p38α MAPK at indicated concentration. In kind it is biochemical.
For another data set, the target named is JNK1 (Homo sapiens, UniProt P45983). The data set is described as follows: Radiometric assay, Reaction Biology corporation. Type of data set: biochemical.
JNK1, sequence (P45983 whole entry): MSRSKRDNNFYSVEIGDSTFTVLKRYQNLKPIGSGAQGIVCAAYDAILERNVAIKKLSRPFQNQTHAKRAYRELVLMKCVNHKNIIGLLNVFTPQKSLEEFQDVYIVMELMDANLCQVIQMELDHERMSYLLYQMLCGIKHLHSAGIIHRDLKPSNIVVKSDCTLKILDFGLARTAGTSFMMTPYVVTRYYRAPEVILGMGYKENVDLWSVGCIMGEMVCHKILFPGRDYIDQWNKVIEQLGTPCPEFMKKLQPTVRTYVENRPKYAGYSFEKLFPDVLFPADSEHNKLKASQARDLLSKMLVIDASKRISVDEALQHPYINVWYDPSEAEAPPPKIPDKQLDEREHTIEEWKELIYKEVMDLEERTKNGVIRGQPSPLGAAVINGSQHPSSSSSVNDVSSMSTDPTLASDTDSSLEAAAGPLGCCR
In the next data set the target is JNK2 (Homo sapiens, UniProt P45984). As to the kind of experiment: Radiometric assay, Reaction Biology corporation. Type of data set: biochemical.
JNK2, sequence (P45984 whole entry): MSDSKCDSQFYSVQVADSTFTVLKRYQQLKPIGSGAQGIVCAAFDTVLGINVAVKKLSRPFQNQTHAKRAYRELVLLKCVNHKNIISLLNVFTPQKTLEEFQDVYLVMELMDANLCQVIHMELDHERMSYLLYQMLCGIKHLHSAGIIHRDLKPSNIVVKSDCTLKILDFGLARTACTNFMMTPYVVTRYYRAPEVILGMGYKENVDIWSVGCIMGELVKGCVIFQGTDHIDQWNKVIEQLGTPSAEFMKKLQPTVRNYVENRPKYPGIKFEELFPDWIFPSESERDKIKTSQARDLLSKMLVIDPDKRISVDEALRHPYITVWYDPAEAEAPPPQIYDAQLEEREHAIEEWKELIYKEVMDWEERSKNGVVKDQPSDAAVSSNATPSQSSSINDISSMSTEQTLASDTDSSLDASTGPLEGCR
Another data set has as its target hERG channels (Homo sapiens, UniProt Q12809). As to the kind of experiment: hERG inhibition.
The next data set has as its system CYP450 1A9. As to the kind of experiment: CYP450 inhibition. As to conditions: % inhibition at 10 μM. Type of data set: in vitro ADME.
The target in another data set is CYP450 2C9 (Homo sapiens, UniProt P11712). As to the kind of experiment: CYP450 inhibition. In kind it is in vitro ADME. As to conditions: % inhibition at 10 μM.
CYP450 2C9, sequence (P11712 whole entry): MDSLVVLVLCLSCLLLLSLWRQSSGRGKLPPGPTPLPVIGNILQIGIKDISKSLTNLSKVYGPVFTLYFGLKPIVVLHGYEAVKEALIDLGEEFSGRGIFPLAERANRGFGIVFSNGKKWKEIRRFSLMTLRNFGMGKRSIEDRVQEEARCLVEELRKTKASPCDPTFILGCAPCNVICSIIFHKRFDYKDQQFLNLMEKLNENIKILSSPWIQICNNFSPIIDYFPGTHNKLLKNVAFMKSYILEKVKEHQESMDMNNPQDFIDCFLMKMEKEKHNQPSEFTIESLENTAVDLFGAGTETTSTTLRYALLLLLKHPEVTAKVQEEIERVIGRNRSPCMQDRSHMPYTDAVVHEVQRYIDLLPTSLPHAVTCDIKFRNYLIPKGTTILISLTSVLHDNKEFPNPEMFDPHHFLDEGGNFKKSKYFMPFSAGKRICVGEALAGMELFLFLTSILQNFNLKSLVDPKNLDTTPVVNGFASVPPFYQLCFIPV
The target in the next data set is CYP450 2C19 (Homo sapiens, UniProt P33261). As to the kind of experiment: CYP450 inhibition. In kind it is in vitro ADME. As to conditions: % inhibition at 10 μM.
CYP450 2C19, sequence (P33261 whole entry): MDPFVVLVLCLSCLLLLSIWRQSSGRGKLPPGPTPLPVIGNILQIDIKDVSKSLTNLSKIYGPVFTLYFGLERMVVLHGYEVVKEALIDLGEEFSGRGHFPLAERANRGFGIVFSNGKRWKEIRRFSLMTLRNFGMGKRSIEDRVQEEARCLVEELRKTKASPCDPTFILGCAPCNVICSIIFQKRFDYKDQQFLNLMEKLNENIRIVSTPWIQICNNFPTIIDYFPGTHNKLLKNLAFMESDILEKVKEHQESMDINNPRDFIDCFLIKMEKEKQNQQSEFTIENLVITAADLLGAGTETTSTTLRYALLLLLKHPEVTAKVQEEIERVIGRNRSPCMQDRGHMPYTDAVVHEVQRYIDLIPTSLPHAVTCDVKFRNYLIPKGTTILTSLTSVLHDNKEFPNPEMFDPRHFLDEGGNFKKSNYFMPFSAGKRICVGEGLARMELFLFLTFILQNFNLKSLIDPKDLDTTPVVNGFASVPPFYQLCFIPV
Another data set addresses CYP450 2D6 (Homo sapiens, UniProt P10635). The data set is described as follows: CYP450 inhibition. Type of data set: in vitro ADME. The note with it: % inhibition at 10 μM.
The target of a further data set is CYP450 3A4 (Homo sapiens, UniProt P08684). The data set is described as follows: CYP450 inhibition. The note with it: % inhibition at 10 μM. Type of data set: in vitro ADME.
CYP450 3A4, sequence (P08684 whole entry): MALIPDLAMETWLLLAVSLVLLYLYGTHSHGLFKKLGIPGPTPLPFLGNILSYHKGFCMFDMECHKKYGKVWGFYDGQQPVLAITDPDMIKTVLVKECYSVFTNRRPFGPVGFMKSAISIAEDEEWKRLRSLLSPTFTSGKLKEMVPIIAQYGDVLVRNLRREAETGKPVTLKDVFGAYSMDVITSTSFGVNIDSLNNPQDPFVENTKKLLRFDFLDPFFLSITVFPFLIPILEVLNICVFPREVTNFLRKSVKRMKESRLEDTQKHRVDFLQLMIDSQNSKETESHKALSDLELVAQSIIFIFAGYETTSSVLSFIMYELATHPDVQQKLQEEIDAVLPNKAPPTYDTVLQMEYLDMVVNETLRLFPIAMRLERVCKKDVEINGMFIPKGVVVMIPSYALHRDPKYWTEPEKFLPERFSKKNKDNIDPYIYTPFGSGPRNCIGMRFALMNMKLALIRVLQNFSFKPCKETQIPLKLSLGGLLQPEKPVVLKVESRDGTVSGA
A short description of data set [1]: In vitro metabolic stability in human liver microsomes. In kind it is in vitro ADME. As to conditions: after 4 h incubation. For orientation: Microsomes from liver hold many membrane-bound enzymes, among them those of drug oxidation.
The subject of data set [2] is panel of 45 diverse kinases. As to the kind of experiment: ExpresS Diversity Kinase Panel, whole panel. As to conditions: panel of 45 kinases, 10 μM, including JNK1. In kind it is biochemical, human.
[3] abbreviates: 2-methylaminothiazole versus 2-sulfanylimidazole (compound 5).

JNK3, sequence (P53779 whole entry): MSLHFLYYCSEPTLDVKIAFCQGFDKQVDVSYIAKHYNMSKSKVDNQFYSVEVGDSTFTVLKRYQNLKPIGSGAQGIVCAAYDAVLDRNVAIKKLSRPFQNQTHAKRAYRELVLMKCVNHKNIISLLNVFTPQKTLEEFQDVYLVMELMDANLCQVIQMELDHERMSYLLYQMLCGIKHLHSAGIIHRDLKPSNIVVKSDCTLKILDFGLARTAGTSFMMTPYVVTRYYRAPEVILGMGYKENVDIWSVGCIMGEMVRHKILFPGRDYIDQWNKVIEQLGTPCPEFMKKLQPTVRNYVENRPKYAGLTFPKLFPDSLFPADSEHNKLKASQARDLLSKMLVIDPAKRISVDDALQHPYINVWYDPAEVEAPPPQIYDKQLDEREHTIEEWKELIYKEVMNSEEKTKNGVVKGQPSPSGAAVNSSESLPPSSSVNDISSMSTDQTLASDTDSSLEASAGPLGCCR
p38α MAPK, sequence (Q16539 whole entry): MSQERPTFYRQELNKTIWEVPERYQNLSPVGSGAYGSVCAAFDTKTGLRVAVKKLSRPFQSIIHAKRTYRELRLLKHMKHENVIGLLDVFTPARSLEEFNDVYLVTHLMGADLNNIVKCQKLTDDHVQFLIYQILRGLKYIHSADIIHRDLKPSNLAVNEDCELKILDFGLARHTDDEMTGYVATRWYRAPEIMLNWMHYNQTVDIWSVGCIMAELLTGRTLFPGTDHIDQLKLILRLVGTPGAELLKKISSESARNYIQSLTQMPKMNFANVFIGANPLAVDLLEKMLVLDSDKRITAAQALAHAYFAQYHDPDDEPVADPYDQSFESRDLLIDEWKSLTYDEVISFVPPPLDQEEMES
hERG channels, sequence (Q12809 whole entry): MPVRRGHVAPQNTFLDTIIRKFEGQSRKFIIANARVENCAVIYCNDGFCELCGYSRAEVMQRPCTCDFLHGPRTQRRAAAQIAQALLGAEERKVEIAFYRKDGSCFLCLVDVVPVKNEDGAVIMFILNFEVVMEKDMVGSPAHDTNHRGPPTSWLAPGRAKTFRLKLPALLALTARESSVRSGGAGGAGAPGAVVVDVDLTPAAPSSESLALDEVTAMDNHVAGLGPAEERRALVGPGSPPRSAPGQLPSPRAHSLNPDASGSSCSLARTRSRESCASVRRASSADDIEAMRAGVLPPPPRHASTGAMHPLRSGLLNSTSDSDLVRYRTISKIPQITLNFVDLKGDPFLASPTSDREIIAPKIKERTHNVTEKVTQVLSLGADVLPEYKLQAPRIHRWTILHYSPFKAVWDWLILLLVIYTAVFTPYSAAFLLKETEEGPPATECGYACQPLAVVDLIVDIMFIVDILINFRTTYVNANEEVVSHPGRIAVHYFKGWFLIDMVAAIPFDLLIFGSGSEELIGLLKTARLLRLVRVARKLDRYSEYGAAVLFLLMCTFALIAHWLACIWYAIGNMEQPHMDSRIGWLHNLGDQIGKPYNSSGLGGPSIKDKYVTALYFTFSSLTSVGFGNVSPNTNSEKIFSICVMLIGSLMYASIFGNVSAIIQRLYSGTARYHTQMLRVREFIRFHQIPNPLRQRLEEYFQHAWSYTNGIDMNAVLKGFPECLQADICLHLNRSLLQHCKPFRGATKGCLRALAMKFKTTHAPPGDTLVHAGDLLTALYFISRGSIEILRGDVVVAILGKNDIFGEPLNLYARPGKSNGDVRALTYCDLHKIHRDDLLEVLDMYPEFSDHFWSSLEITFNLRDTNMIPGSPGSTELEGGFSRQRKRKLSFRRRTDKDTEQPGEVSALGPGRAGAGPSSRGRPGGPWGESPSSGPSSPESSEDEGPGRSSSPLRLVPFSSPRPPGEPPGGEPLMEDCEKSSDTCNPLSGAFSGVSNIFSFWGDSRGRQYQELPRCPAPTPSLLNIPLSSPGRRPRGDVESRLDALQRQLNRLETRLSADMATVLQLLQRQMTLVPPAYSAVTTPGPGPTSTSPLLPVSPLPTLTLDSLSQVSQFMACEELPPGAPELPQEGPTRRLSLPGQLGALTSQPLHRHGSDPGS
CYP450 2D6, sequence (P10635 whole entry): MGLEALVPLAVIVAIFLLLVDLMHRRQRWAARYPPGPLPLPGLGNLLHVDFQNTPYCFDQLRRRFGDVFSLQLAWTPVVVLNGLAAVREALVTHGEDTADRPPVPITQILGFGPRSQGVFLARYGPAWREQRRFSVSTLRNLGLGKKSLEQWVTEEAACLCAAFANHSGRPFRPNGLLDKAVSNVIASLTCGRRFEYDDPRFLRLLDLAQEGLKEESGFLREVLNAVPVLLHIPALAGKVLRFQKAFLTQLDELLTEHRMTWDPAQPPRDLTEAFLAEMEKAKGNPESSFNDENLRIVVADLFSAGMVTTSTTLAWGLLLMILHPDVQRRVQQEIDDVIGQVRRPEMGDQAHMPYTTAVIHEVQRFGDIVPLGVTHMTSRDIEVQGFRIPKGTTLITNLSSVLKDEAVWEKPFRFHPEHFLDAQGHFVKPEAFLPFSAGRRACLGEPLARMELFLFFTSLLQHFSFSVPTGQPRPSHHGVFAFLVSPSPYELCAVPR

As to `CSc1nc(C)c(-c2ccnc(Nc3ccc(N4CCOCC4)cc3)c2)[nH]1` [Compound 44, 4-(4-Methyl-2-(methylthio)-1H-imidazol-5-yl)-N-(4-morpholinophenyl)pyridin-2-amine], the half-inhibitory concentration (IC50) against JNK3 was 363 ± 34 nM; against p38α MAPK, > 10000 nM; against JNK1, 119 nM; against JNK2, 468 nM; against hERG channels, > 10000 nM. For the same compound, the “fold increase in the inhibitory potency on JNK3 over analogue 38” value at JNK3 stood at 2 fold. For the same compound, at p38α MAPK, the inhibition at 10 µM worked out at 48%. Also, the “hERG inhibition [% inhibition at 10 μM]” value on hERG channels (10 μM) is listed as 38.8%. Also, the “CYP450 inhibition 1A9” value in the data set with CYP450 1A9 stood at 51.5%. The “CYP450 inhibition 2C9” value at CYP450 2C9 is 53.9%. Further, the “CYP450 inhibition 2C19” value on CYP450 2C19 came out at 35.6%. In addition, the “CYP450 inhibition 2D6” value at CYP450 2D6 is reported as 19.0%. At CYP450 3A4, the “CYP450 inhibition 3A4” value is on record as 75.1%. In addition, the “unmodified compound still present” value in data set [1] is “approximately 80%”. Besides, the “number of kinases inhibited more than 50%” value in data set [2] is on record as 10.

For the compound `CSc1nc(C)c(-c2ccnc(Nc3ccc(NC(=O)c4ccccc4)cc3)c2)[nH]1` [Compound 48o, N-(4-((4-(4-Methyl-2-(methylthio)-1H-imidazol-5-yl)pyridin-2-yl)amino)phenyl)benzamide], the IC50 is 432 ± 37 nM against JNK3 and > 10000 nM at p38α MAPK. For the same compound, the inhibition at 10 µM on p38α MAPK was 33%.

Regarding `CSc1nc(C)c(-c2ccnc(Nc3ccc(NC(=O)C4CCCCC4)cc3)c2)[nH]1` [Compound 48p, N-(4-((4-(4-Methyl-2-(methylthio)-1H-imidazol-5-yl)pyridin-2-yl)amino)phenyl)cyclohexanecarboxamide], the IC50 was 1540 nM at JNK3 and > 10000 nM against p38α MAPK. Besides, the inhibition at 10 µM on p38α MAPK is 27%.

Consider `CSc1nc(C)c(-c2ccnc(Nc3ccc(NC(=O)C(C)(C)C)cc3)c2)[nH]1` [Compound 48q, N-(4-((4-(4-Methyl-2-(methylthio)-1H-imidazol-5-yl)pyridin-2-yl)amino)phenyl)pivalamide], for which the IC50 against JNK3 is 2370 nM; against p38α MAPK, > 10000 nM. At p38α MAPK, the inhibition at 10 µM was determined as 15%.

`CSc1nc(-c2ccnc(Nc3ccc(N4CCOCC4)cc3)c2)c(C)n1C` [Compound 50, 4-(1,5-Dimethyl-2-(methylthio)-1H-imidazol-4-yl)-N-(4-morpholinophenyl)pyridin-2-amine] came in with an IC50 at JNK3 of 1280 nM. Also, at p38α MAPK, the IC50 is > 10000 nM and the inhibition at 10 µM was 37%.

Regarding `CSc1nc(C)c(-c2ccnc(Nc3ccc(N4CCOCC4)cc3)c2)n1C` [Compound 57, 4-(1,4-Dimethyl-2-(methylthio)-1H-imidazol-5-yl)-N-(4-morpholinophenyl)pyridin-2-amine], the IC50 is 2510 nM against JNK3 and > 10000 nM on p38α MAPK. Further, at p38α MAPK, the inhibition at 10 µM was 10%.

`CCn1c(SC)nc(C)c1-c1ccnc(Nc2ccc(N3CCOCC3)cc2)c1` [Compound 58, 4-(1-Ethyl-4-methyl-2-(methylthio)-1H-imidazol-5-yl)-N-(4-morpholinophenyl)pyridin-2-amine] came in with a 50% inhibitory concentration (IC50) against JNK3 of 2090 nM. In addition, on p38α MAPK, the IC50 is > 10000 nM and the inhibition at 10 µM came to 21%.

With `CSc1nc(C)c(-c2ccnc(Nc3ccc(N4CCOCC4)cc3)c2)n1C1CC1` [Compound 59, 4-(1-Cyclopropyl-4-methyl-2-(methylthio)-1H-imidazol-5-yl)-N-(4-morpholinophenyl)pyridin-2-amine], at JNK3, half-maximal inhibition (IC50) was put at 6510 nM and the “fold less active on JNK3 compared to N-methyl analogue 57” value is listed as ~3 fold. On p38α MAPK, the IC50 was > 10000 nM and the inhibition at 10 µM amounted to 40%.

Turning to `Fc1ccc(-n2cncc2-c2ccnc(Nc3ccc(N4CCOCC4)cc3)c2)cc1` [Compound 66, 4-(1-(4-Fluorophenyl)-1H-imidazol-5-yl)-N-(4-morpholinophenyl)pyridin-2-amine], the results for the IC50 on JNK3 and at p38α MAPK were 276 ± 10 nM and 323 ± 14 nM, respectively.

Take `Cn1cncc1-c1ccnc(Nc2ccc(N3CCOCC3)cc2)c1` [Compound 67, 4-(1-Methyl-1H-imidazol-5-yl)-N-(4-morpholinophenyl)pyridin-2-amine]: at JNK3, half-maximal inhibition (IC50) was put at 714 ± 21 nM. On p38α MAPK, the IC50 is > 10000 nM and the inhibition at 10 µM was found to be 32%.

In the case of `Cn1ccnc1-c1ccnc(Nc2ccc(N3CCOCC3)cc2)c1` [Compound 71, 4-(1-Methyl-1H-imidazol-2-yl)-N-(4-morpholinophenyl)pyridin-2-amine], the IC50 against JNK3 and against p38α MAPK was > 10000 nM in each case. Also, the inhibition at 10 µM at JNK3 (read-out: Percent inhibition of JNK3 at indicated concentration) stood at 42%; at p38α MAPK it was 15%.

As to `CNc1nc(-c2ccc(F)cc2)c(-c2ccnc(Nc3ccc(N4CCOCC4)cc3)c2)s1` [Compound 75, 4-(4-Fluorophenyl)-N-methyl-5-(2-((4-morpholinophenyl)amino)pyridin-4-yl)thiazol-2-amine], the IC50 stood at 15 ± 3 nM against JNK3 and 2 nM at p38α MAPK. Moreover, the “fold increase in inhibitory activity for JNK3” value on JNK3 (setting [3]) was found to be 2.5 fold. Also, on p38α MAPK (setting [3]), the “fold increase in inhibitory activity for p38α MAPK” value was found to be 8 fold.

As for `CNc1nc(-c2ccnc(Nc3ccc(N4CCOCC4)cc3)c2)c(C)s1` [Compound 78, N,5-Dimethyl-4-(2-((4-morpholinophenyl)amino)pyridin-4-yl)thiazol-2-amine], the concentration for half-maximal inhibition (IC50) on JNK3 is 2500 nM. In addition, at p38α MAPK, the IC50 is > 10000 nM and the inhibition at 10 µM was determined as 9%.
